Assay results from patent publication US20230204569A1, “ANALYSIS DEVICE” (INCYTON GMBH, priority 2020, published 2023).

Key:
[1] = system: Mouse fibroblast L929 cells
Experimental: A mitochondrial stress test was performed in a device of the present invention. Mouse fibroblast L929 cells were cultivated in the wells of a micro-titer plate at 37° C. and provided with fresh media in time intervals of 20 min.
A measurement cycle involved addition of following compounds at the indicated time points:
t=60 min: Addition of 1 μM oligomycin A
t=140 min: Addition of 1 μM antimycin A and 1 μM rotenone

[2] = system: L929 mouse fibroblast cells; assay: Toxicology assay: OCR, ECAR and morphology under SLS; type: cell-based
Experimental: L929 mouse fibroblast cells were investigated under the influence of the reference toxicant sodium lauryl sulfate (SLS). The test settings included 12 h of pretreatment and 12 h of treatment with different concentrations of SLS. Throughout the assay, oxygen consumption and extracellular acidification, as well as morphology based on regular microscope images, were recorded.

[3] = 77.8 μg/ml SLS, first 3 h after SLS addition

Compound | Maximum respiration (OCR) as % of the basal respiration ([1]; 0.13 μM and 0.25 μM FCCP added at t=100 min after 1 μM oligomycin A) | reserve capacity ([1]; maximum respiration under FCCP minus basal respiration) | outcome after continuation of the treatment (12 h treatment) ([2]; 77.8 μg/ml SLS, continued treatment) | acidification (ECAR) [2, 3] | oxygen uptake (OCR) [2, 3] | OCRs and ECARs dose and time dependence ([2]; 77.8 μg/ml and 778 μg/ml SLS)
N#CC(C#N)=NNc1ccc(OC(F)(F)F)cc1 [FCCP, carbonyl cyanide p-(trifluoromethoxy) phenylhydrazone] | 131% | 31% | – | – | – | –
CCCCCCCCCCCCOS(=O)(=O)[O-].[Na+] [SLS, sodium lauryl sulfate] | – | – | cell death and a drop in all metabolic values | increases | reduced | clear dose- and time-dependent reaction
